Among the data in PubChem BioAssay (NCI) are TGI and GI50 values, retold here.

Assay in all cases: DTP human tumour cell line panel, 48 h
For assay [1], the system named is OVCAR-8 ovarian.
Assay [2] concerns DMS 114 small cell lung.
The subject of assay [3] is HOP-62 NSCLC.
For assay [4], the system named is SF-295 CNS.
For assay [5], the system named is DMS 273 small cell lung.
The test system of assay [6] is MALME-3M melanoma.
Assay [7] relates to OVCAR-5 ovarian.
Assay [8] concerns SW-620 colon.
Assay [9] concerns SK-MEL-2 melanoma.
Assay [10] concerns KM12 colon.

What is called TGI is the concentration at which net growth stops. A low value points to more potent growth arrest. By GI50 is commonly meant the concentration at which growth is held to half of that of the control.

Several values for one entry are separate records, joined by “and”; a condition that tells them apart may be missing. Equal entries are not always repeated.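 Compound exposure: 48 hours, 5 concentrations, 96-well plates. GI50 = concentration required for 50% inhibition of growth. TGI: total growth inhibition.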

Regarding `O=C(c1ccccc1)n1cc(/C=C/[N+](=O)[O-])c2ccccc21`, the TGI is over 100 µM in assay [1]; 38 µM in assay [2]; over 100 µM in [3]; over 100 µM in assay [4]; 55.1 µM in [5]; 96.7 µM in assay [6]. Further, the TGI is over 100 µM in assay [7], 38.1 µM in assay [8], 35.6 µM in assay [9] and 32.5 µM in [10].
For the compound `O=c1cccccc1[O-].O=c1cccccc1[O-].O=c1cccccc1[O-].[Nd+3]`, the TGI in assay [1] is 90.7 µM; in [3], 95.3 µM; in [4], over 100 µM; in assay [5], over 100 µM; in [6] it was over 100 µM; in assay [7], over 100 µM. The TGI in assay [8] was over 100 µM; in assay [9], 97.3 µM; in assay [10], over 100 µM. Besides, the GI50 was 32 µM in [3] and 14.3 µM in assay [5].
Turning to `CCCCCCCCCCCCC(O)C1CCC(C(O)CCCCC(O)CCCCCC2CC(CC(C)=O)C(=O)O2)O1` (stereo not given), the GI50 in assay [1] was 1.38 µM; in assay [3], 2.74 µM; in assay [4], 0.508 µM; in assay [7] it was 3.92 µM; in assay [8], 3.29 µM; in assay [9], 1.36 µM. Moreover, the GI50 in assay [10] was 7.64 µM. Further, the TGI was 3.48 µM and 20.9 µM in assay [1]; 7.78 µM in assay [2]; 19.1 µM in assay [3]; 13.5 µM in [4]; 13 µM in assay [5]; 16.5 µM in assay [6]. For the same compound, the TGI was 23.6 µM in assay [7]; 25.4 µM in assay [8]; 2.88 µM and 15.8 µM in [9]; 4.89 µM and 20.5 µM in assay [10].
With `Cc1ccccc1N(CCC#N)C1=NN(C(=O)CC(=O)Nc2ccc(Cl)cc2)C(c2ccccc2)C1` (stereo not given), the TGI in [1], in [2], in assay [3], in assay [4], in [5] and in [6] was over 100 µM each time. The TGI in [7], in assay [8], in assay [9] and in [10] was over 100 µM in each case.
For `CC(C)(C)N1CC1CNC(=O)C(=O)NCC1CN1C(C)(C)C` (stereo not given), the TGI in assay [1] was found to be 14.8 µM; in assay [2] it was 2.49 µM; in [3], 3.68 µM; in assay [4], 14.3 µM; in assay [5] it was 0.517 µM; in assay [6], 8.68 µM. Besides, the TGI in assay [7] is 7.56 µM; in assay [8] it was over 11 µM; in [9], 10.2 µM; in assay [10] it was 12.3 µM.
On to `CC(=O)Oc1ccc2c(=O)c(C(C)=O)coc2c1`, for which the TGI in assay [1], in assay [3], in assay [4], in assay [5], in assay [7] and in assay [8] was over 100 µM each time. Besides, the TGI in assay [9] and in [10] was over 100 µM in each case.
In the case of `CC(=O)OC1C(O)C(C)OC(OC2C(OC(=O)C3CCC4C(C3)OC3(CC(OC(=O)/C=C/c5ccccc5)C(C)CO3)C43CO3)OC(C)C(O)C2OC(C)=O)C1O` (stereo not given), the TGI in [1] was 0.198 µM; in assay [2], 0.0727 µM; in assay [3], 0.0519 µM; in [4], 0.145 µM; in assay [5], 0.111 µM; in assay [6], under 0.0185 µM. Besides, the TGI worked out at 0.144 µM in assay [7], 0.184 µM in [8], 0.0189 µM in assay [9] and 0.0562 µM in assay [10].
As to `OC1CC(O)O[C@H](c2ccccc2)C1` (stereo not given in full), the TGI in assay [1], in assay [3], in assay [4], in assay [5], in assay [6] and in [7] was over 100 µM in each case. In addition, the TGI in assay [8] and in assay [10] was over 100 µM each time.
Consider `CC(=O)OCc1nnn2c1C(OC(C)=O)CC2` (stereo not given), for which the TGI in assay [1], in assay [2], in assay [4], in assay [5], in assay [6] and in assay [7] was over 100 µM in each case. Moreover, the TGI in [8], in assay [9] and in [10] was over 100 µM in each case.
For the compound `NNC(=O)/C(NC(=O)c1ccccc1)=C(\N)c1cccc([N+](=O)[O-])c1`, the TGI in assay [1], in [2], in [3], in assay [4], in [5] and in [6] was over 100 µM in each case. Also, the TGI in assay [7], in assay [8], in assay [9] and in assay [10] was over 100 µM each time.
On to `Cc1[nH]c(=O)n2c(C)nnc2c1C(=O)O`, for which the TGI in assay [1], in assay [2], in assay [3], in assay [4], in assay [6] and in assay [7] was over 100 µM throughout. Further, the TGI in [8], in assay [9] and in assay [10] was over 100 µM in each case.
As to `OC1(C(Sc2ccccc2)Sc2ccccc2)CCCCCC1`, the TGI in assay [1] was over 100 µM; in [2], 68.9 µM; in [3], 59.5 µM; in [4], 66.2 µM; in [5], 76.5 µM; in assay [8], over 100 µM. The TGI is 41.2 µM in [9] and over 100 µM in assay [10].
Turning to `CC[O-].CC[O-].O=C1C=C([O-])C(=O)c2ccccc21.O=C1C=C([O-])C(=O)c2ccccc21.[Ti+4]`, the GI50 in assay [1] is over 100 µM; in assay [3] it was over 100 µM; in assay [5], over 63.5 µM; in assay [6], 9.89 µM; in assay [7] it was over 100 µM; in assay [8] it was 90.5 µM. Also, the GI50 in assay [9] is 9.89 µM; in [10], over 90.8 µM. The TGI in assay [1], in assay [3], in [4], in assay [5], in [6] and in assay [7] was over 100 µM throughout. In addition, the TGI in assay [8], in assay [9] and in assay [10] was over 100 µM each time.
For the compound `C/C=C1\Oc2ccc(OC)cc2S1(=O)=O`, the TGI in [1], in [2], in assay [3], in assay [4], in assay [5] and in [6] was over 100 µM throughout. Besides, the TGI in [7], in [8], in assay [9] and in assay [10] was over 100 µM each time.
Turning to `O=C(O)C1=Cc2cccc3cccc(c23)C1=O`, the TGI in [1], in assay [2], in assay [3], in assay [4], in [5] and in [6] was over 100 µM throughout. Further, the TGI in [7], in assay [8], in assay [9] and in [10] was over 100 µM in each case.
`C[C@@H](NC1CCCC[C@@H]1O)c1ccccc1` (stereo not given in full): the TGI in [1], in [3], in assay [4], in assay [5], in assay [6] and in assay [7] was over 100 µM in each case. Also, the TGI in [8], in assay [9] and in [10] was over 100 µM throughout.
For `CCN(N=O)C1C2(CCCC2)NC(=O)C12CCCC2` (stereo not given), the TGI in [1], in assay [2], in assay [3], in assay [4], in assay [6] and in [7] was over 100 µM in each case. For the same compound, the TGI in assay [8] and in assay [10] was over 100 µM each time.
On to `CCOC(=O)CCc1c(C)c2c(OC)cc(OC)cc2oc1=O`, for which the TGI in [1], in [3], in [4], in assay [5], in assay [6] and in assay [7] was over 100 µM throughout. The TGI in assay [8], in [9] and in assay [10] was over 100 µM in each case.
On to `c1cc[n+](Cc2c3ccccc3cc3c2ccc2ccccc23)cc1`, for which the GI50 in [1] was 3.49 µM; in assay [3] it was 2.41 µM; in assay [4] it was 3.42 µM; in assay [6], 1.56 µM; in [7], 11.1 µM; in assay [8], 6.16 µM. Also, the GI50 in [9] was 2.14 µM; in [10] it was 3.09 µM. The TGI in assay [1] was found to be 16.1 µM; in assay [3] it was 11.7 µM; in assay [4], 23.2 µM; in assay [6] it was 3.91 µM; in [7], 26.8 µM; in assay [8], 21.9 µM. Besides, the concentration for total growth inhibition (TGI) in assay [9] turned out to be 4.69 µM; in [10], 11.8 µM.
Regarding `COc1cccc(C(=O)NNc2nc(Cl)nc(N3CCN(C(c4ccccc4)c4ccccc4)CC3)n2)c1`, the GI50 in assay [1] was 2.02 µM; in assay [3], 8.71 µM; in [4], 16.8 µM; in assay [6], 1.7 µM; in assay [7] it was 16.3 µM; in [8] it was 1.9 µM. The GI50 in assay [9] was 2.14 µM; in assay [10], over 100 µM. Further, the TGI in [1] turned out to be 4.53 µM; in assay [3], 23.5 µM; in assay [4] it was 30.4 µM; in assay [6], 3.78 µM; in [7] it was 40 µM; in assay [8] it was 3.98 µM. Besides, the TGI was 5.31 µM in assay [9] and over 100 µM in [10].
